Patent US10813972B2, “Treatment of DNA damage and mitochondrial dysfunction using palm fruit juice” (BRANDEIS UNIVERSITY, priority 2013, dated 2020)

Test system: mitochondrial DNA (HV2, CO2, ND1) of HepG2 cells
Assay: mtDNA mutational load in HepG2 cells grown 30 days with INH or INH+PFJ (multiplex LATE-PCR/Lights On-Lights Off assay)
Type: cell-based, human
Conditions: 88 μM INH, HepG2, 30 days
Protocol: A liver carcinoma cell line (HepG2 cells, ATCC, Manassas, Va.) was grown for 30 days in the presence of either 88 μM INH (Sigma, St. Louis, Mo.) or 88 μM INH+50 μg/ml gallic acid equivalents (GAE) PFJ. A culture without these additives served as a non-treated control. Cells were grown in Eagle's Minimum Essential Medium (ATCC Manassas, Va.). The media were supplemented with 25 mM HEPES, 10% fetal bovine serum (BioWest), 50 units/mL Penicillin G, 50 units/mL Streptomycin, and 0.25 μg Amphotericin B (HyClone Antibiotic/Antimycotic Solution 100×) in 6-well plates at 37° C. and 5% CO2. The media and additives were replenished every other day. The cells were passaged as per ATCC's instructions at an initial density of 1×10^5 cells/ml.
At the end of the culture period, each HepG2 culture was tripsinized, spun at 100×g for 15 min at 4° C. and resuspended in Dulbecco's phosphate buffer solution (Sigma, St. Louis, Mo.) at a concentration of 1×10^3 cells/ml. DNA from these cultures was extracted by placing 5 μl of cell suspension into 32.5 μl volume of a lysis buffer containing 100 μg/ml proteinase K, 10 mM Tris-Cl pH 8.3, and 5 μM SDS (sodium-dodecyl-sulfate) and heating to 50° C. for 2 hours followed by 95° C. for 15 minutes. The samples were then stored at −20° C. […]

Structure (SMILES): NNC(=O)c1ccncc1 [INH, isoniazid]
- mtDNA mutational load (fluorescent signature changes indicative of mitochondrial DNA mutations): increases mtDNA mutational load
